Data on three molecules can be found in PMC3913682, “A Monoclonal Antibody TrkB Receptor Agonist as a Potential Therapeutic for Huntington’s Disease” (PLoS ONE, 2014).

By EC50 is commonly meant the concentration at which the effect is half-maximal.

Data set [1] deals with TrkB. Details: method as in PMID 20407211. As to conditions: hippocampal neurons; cited from earlier work.
Data set [2] can be described thus: Solubility assay under CellSensor assay conditions (HPLC-UV). It counts as physicochemical. Conditions: for Concentration @ t = 0: 0 hours; for Concentration @ t = 0 / Concentration @ t = 3 / Concentration @ t = 7: assay buffer, 0.5% DMSO; for Concentration @ t = 3: 3 hours; for Concentration @ t = 7: 7 hours. The procedure: To align with the functional data, all compound samples and dilutions were prepared using the CellSensor® assay conditions that include: assay buffer, plates, sample volumes and the same timeframe. The assay incubation time was 7 hours. 0, 3 and 7 hour samples were analysed, in triplicate, in the final assay buffer (DMEM/Glutamax + NEAA + 20 mM Hepes pH7.4 + 0.01% BSA, final DMSO concentration 0.5%) at nominal compound concentrations of 5, 20 and 50 µM. […] The 7 and 3 hour samples were prepared at times which allowed simultaneous filtering and sample analysis.

The subject of another data set is TrkB phosphorylation. The experiment in a line: Western blot of TrkB phosphorylation in rat primary cortico-striatal co-cultures. Conditions: 15 minutes; non-transfected; Figure 7B, C. The format is cell-based. The text has this:
(§1) Clarified cell lysates were resolved by SDS-PAGE, blotted onto nitrocellulose membranes and immunoprobed with the relevant primary and secondary antibody combinations. Anti-pTrkB Tyr^516 (4619), anti-pTrkB Tyr^706/707 (4621), anti-pTrkB, Tyr^816 (4168), anti-pERK1/2 […], anti-pAKT […], anti-TrkB (4603), anti-AKT (4685) and anti-ERK1/2 (4695) were sourced from Cell Signalling Technologies. Anti-GAPDH (IMG-5143A) was obtained from Imgenex; Goat anti-rabbit HRP conjugate (PO448) and Goat anti-mouse HRP conjugate (PO447) were sourced from Dako. Goat anti-mouse 800CW conjugate and Goat anti-rabbit 680 conjugate were sourced from LI-COR. Immunoreactive signals were detected using enhanced chemiluminescence reagent (Amersham) or using the Odyssey infra-red reader.
For orientation: Immunoblotting shows a protein as a band on a membrane.

Data set [3] deals with TrkB, AKT and ERK1/2 phosphorylation. As to the kind of experiment: Western blot of TrkB, AKT and ERK1/2 phosphorylation in TrkB-NFAT-bla CHO-K1 cells. The format is cell-based. As to conditions: Figure 6E.
Source text: as §1

The target of data set [4] is T1, TrkB (Homo sapiens, UniProt Q16620). Further details: host or cells: CHO-K1. As to conditions: cited from earlier work.
The test system of a further data set is striatal neurons. As to the kind of experiment: Primary neuronal mHTT-induced cell death assay (cortico-striatal co-culture). It counts as cell-based, rat. The text has this:
Cortical and striatal neurons were isolated from E18 rat embryos and separately transfected with a HTT exon1 fragment containing 73 CAG repeats (HTTN90Q73), together with a plasmid encoding for either a green AcGFP or a red AsRed fluorescent reporter before being plated on glial cells and treated with candidate pharmacological agents. After 5 days in culture, the number of fluorescent cells remaining was counted using an automated high content imaging and analysis platform (GE Healthcare InCell 2000) and any changes in neuronal survival quantified.

The test system of data set [5] is Hippocampal HT-22 (TrkB-null cell line). Details: method as in PMID 21651962. As to conditions: cited from earlier work.
Data set [6] addresses T1, TrkB. The experiment in a line: CellSensor TrkB-NFAT-bla CHO-K1 reporter gene assay (agonist, antagonist, PAM modes). Details: host or cells: CHO-K1. The format is cell-based. The procedure: The assays were configured using Invitrogen CHO-K1 cell lines stably expressing a β-lactamase gene under the control of a NFAT promoter region and the relevant Trk (A, B or C) receptor (except for the Trk null cell line). The activity of the β-lactamase enzyme was quantified via FRET with a fluorescent substrate containing a β-lactam ring, according to manufacturer’s provided protocol. All CellSensor® NFAT-bla CHO-K1 cell lines were seeded into black 384w assay plates in CellSensor® plating media (growth media without antibiotics) at 5,000 cells in a volume of 25 µL per well; cells were incubated at 37°C, 5% CO2 overnight. Then, the assay plating media was removed and replaced with 32 µL of assay media (plating media without serum) and returned to the incubator for 1 hour. […] Test compounds were added (4 µL) and cells were returned to the incubator for 1 hour; dependent on assay mode (agonist, antagonist or positive allosteric modulator) assay media alone (agonist mode), assay media containing EC80 neurotrophin (antagonist mode) or assay media containing EC20 neurotrophin (PAM mode) were then added to the cells (4 µL) for a further 4 hour incubation. ToxBLAzer detection reagent was reconstituted according to the manufacturer’s instructions and 8 µL/well added to the assay plates, these were then incubated at room temperature protected from light for 2 hours. Levels of β-lactamase activity were then quantified by measuring the fluorescent intensity ratio between ^EX400nm/^EM535nm and ^EX400nm/^EM460nm and cytotoxicity quantified by measuring the fluorescence intensity at ^EX590nm/^EM665nm using a Perkin Elmer EnVision.
(In general: Reporter assays use an easily measured gene product as a stand-in for the process of interest.)

Data set [7] has as its target T1, TrkB. As to the kind of experiment: DiscoveRx PathHunter U2OS TrkB enzyme fragment complementation (EFC) assay. It counts as cell-based. As to conditions: Figure 6C; read-out: BDNF potency (EC50), PathHunter EFC, agonist mode. The text has this: The assay was configured using DiscoveRx PathHunter® U2OS cell line stably co-expressing two cDNAs: a ProLink™ (PK) tagged TrkB receptor and an Enzyme Acceptor (EA) tagged SH2 domain. Activation of the TrkB-PK receptor induces receptor dimerization and trans-phosphorylation, leading to SH2-EA recruitment, and thereby forcing complementation of the two β-galactosidase enzyme fragments (EA and PK). The resulting functional enzyme hydrolyzes substrate to generate a chemiluminescent signal. U2OS-TrkB PathHunter® cells were seeded into white 384w assay plates in plating media (1x MEM; 0.5% v/v horse serum) at 10,000 cells in a volume of 20 µL per well, cells were incubated at 37°C, 5% CO2 overnight to adhere to assay plates. Test compounds were added (5 µL) to the cells and the plates were returned to the incubator for 1 hour; dependent on assay mode (agonist, antagonist or positive allosteric modulator) assay media alone (agonist mode), assay media containing EC80 BDNF (antagonist mode) or assay media containing EC20 BDNF (PAM mode) were then added to the cells (5 µL) for a further 4 hour incubation at room temperature. PathHunter® detection reagent was then added (15 µL/well) and incubated at room temperature protected from light for 1 hour. Levels of β-galactosidase activity were then quantified by measuring the chemiluminescent signal obtained using a Perkin Elmer EnVision.

T1 sequence (Q16620 32-822): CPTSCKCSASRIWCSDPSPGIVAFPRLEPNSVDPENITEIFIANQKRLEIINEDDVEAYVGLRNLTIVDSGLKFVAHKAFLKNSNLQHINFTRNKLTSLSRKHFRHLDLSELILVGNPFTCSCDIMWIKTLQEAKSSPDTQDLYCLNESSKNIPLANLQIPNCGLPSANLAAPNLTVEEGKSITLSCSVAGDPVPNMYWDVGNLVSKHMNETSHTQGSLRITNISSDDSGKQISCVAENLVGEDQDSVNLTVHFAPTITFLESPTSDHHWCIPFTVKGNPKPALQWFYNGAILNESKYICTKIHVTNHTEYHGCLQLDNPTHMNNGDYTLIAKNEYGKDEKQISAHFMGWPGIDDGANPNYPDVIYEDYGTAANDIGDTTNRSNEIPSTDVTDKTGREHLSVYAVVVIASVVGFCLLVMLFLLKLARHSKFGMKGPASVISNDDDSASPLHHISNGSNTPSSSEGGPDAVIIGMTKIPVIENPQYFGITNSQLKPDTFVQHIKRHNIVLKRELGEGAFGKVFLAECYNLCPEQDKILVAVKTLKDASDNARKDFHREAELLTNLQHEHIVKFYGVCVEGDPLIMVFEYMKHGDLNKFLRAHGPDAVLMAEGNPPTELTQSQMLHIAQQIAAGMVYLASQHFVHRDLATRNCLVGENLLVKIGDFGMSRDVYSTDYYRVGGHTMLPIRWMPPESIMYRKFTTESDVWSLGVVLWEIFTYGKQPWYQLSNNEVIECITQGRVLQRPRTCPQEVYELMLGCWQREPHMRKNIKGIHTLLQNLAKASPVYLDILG

Take `O=C(NCCO)c1cc(C(=O)NCCO)cc(C(=O)NCCO)c1` [LM22A-4]: the “Induction of TrkB-Tyr516 phosphorylation” value in the data set with TrkB [1] is given as ~30 % of the efficacy of BDNF. Also, in data set [2] (nominal concentration 5 µM), the “Concentration @ t = 0” value is listed as 7.2 µM, the “Concentration @ t = 3” value is recorded as 7.8 µM and the “Concentration @ t = 7” value turned out to be 11 µM. In addition, in data set [2] (nominal concentration 20 µM), the “Concentration @ t = 0” value turned out to be 17 µM, the “Concentration @ t = 3” value is 17 µM and the “Concentration @ t = 7” value came to 20 µM. Also, in [2] (nominal concentration 50 µM), the “Concentration @ t = 0” value stood at 59 µM, the “Concentration @ t = 3” value is on record as 58 µM and the “Concentration @ t = 7” value was determined as 64 µM. Moreover, in the data set with TrkB phosphorylation, the “Induction of TrkB phosphorylation (in words)” value is on record as “failed to mimic the ability of BDNF”. Further, in [3] (LM22A-4 at low (10 µM) and high (83 µM), N-acetyl serotonin at high (83 µM) concentration), the “Basal phospho-ERK1/2 immunoreactive bands” value is recorded as “absence of immunoreactive bands”. Further, on TrkB [4], the “Published in vitro activity (in words)” value was “TrkB agonist; Neuroprotective” and the “Published in vitro activity: Activity” value is 0.5 to 500 nM. In the data set on striatal neurons (Figure 7A), the “Protection of striatal neurons from mHTT-induced cell death (in words)” value is listed as “failed to mimic the ability of BDNF”.
Regarding `O=c1cc(-c2ccccc2)oc2c(O)c(O)ccc12` [7,8-dihydroxyflavone], the “Concentrations showing toxicity effects, HT-22 cell viability” value in data set [5] is “above 20 µM”. In addition, in [2] (beyond the tested lower concentration of 5 µM, NFAT assay solutions), the “Compound remaining in solution” value was about 20%. Also, in data set [2] (nominal concentration 5 µM), the “Concentration @ t = 0” value is listed as 0.49 µM, the “Concentration @ t = 3” value amounted to 0.24 µM and the “Concentration @ t = 7” value is reported as 2.3 µM. In [2] (nominal concentration 20 µM), the “Concentration @ t = 0” value was 3.0 µM, the “Concentration @ t = 3” value came out at 1.9 µM and the “Concentration @ t = 7” value is given as 5.2 µM. In [2] (nominal concentration 50 µM), the “Concentration @ t = 0” value is given as 13 µM, the “Concentration @ t = 3” value is on record as 10 µM and the “Concentration @ t = 7” value is given as 13 µM. Moreover, the “Induction of TrkB phosphorylation (in words)” value in the data set with TrkB phosphorylation was “failed to mimic the ability of BDNF”. Moreover, on TrkB [4], the “Published in vitro activity (in words)” value is recorded as “Neuronal TrkB agonist; Promotes neurogenesis” and the “Published in vitro activity: Activity” value is 10 to 250 nM. In the data set with striatal neurons (Figure 7A), the “Protection of striatal neurons from mHTT-induced cell death (in words)” value was “failed to mimic the ability of BDNF”. Moreover, the “Concentrations at which toxicity was evident” value in the data set on striatal neurons (rat cortico-striatal co-culture) is at least 20 µM.

B1: Brain-derived neurotrophic factor (protein, UniProt P23560 19-247, looked up)
Neurotrophic factor BDNF …: APMKEANIRGQGGLAYPGVRTHGTLESVNGPKAGSRGLTSLADTFEHVIEELLDEDQKVRPNEENNKDADLYTSRVMLSSQVPLEPPLLFLLEEYKNYLDAANMSMRVRRHSDPARRGELSVCDSISEWVTAADKKTAVDMSGGTVTVLEKVPVSKGQLKQYFYETKCNPMGYTKEGCRGIDKRHWNSQCRTTQSYVRALTMDSKKRIGWRFIRIDTSCVCTLTIKRGR
notes: Neuroprotective secreted protein, cognate neurotrophin of TrkB
B1: the EC50 with TrkB [6] (Figure 4A, 5 hours, read-out: EC50, TrkB-NFAT-bla reporter, agonist mode) stood at 145 pM; in the data set with TrkB [6] (Figure 6A, read-out: BDNF potency (EC50), CellSensor NFAT reporter, agonist mode), 323 pM; in the data set with TrkB [7], 823 pM; with striatal neurons (Figure 7A, normalized to 1 nM BDNF (100% Rescue) and vehicle (0%), read-out: EC50, % Rescue of striatal neurons from mHTT-induced cell death), 214 pM. Besides, the “TrkB, ERK1/2 and AKT phosphorylation (pathway activation)” value in data set [3] (5 hours treatment) was “induced phosphorylation of TrkB, ERK1/2 and AKT”.
